Experimental data from patent US8980226B2, “Aerosolized fosfomycin/aminoglycoside combination for the treatment of bacterial respiratory infections” (Gilead Sciences, Inc., priority 2004, dated 2015).
≈ marks a conversion by molar mass, not a printed value. Where two headings read alike, the source gives them in different places.

Legend:
[1] = tested on: E. coli, Proteus spp., Salmonella spp., Shigella spp., and S. marcescens; conditions: Forsgren and Walder, 1983; cited from earlier work
P. aeruginosa = assay type: cell-based; conditions: for Frequency of Resistance: plates with 128 μg/mL fosfomycin, 8 μg/mL tobramycin, or both
Description: The frequency of single-step spontaneous resistance mutation was determined for 5 susceptible P. aeruginosa strains. The bacterial inoculum was prepared by inoculating 5 mL of CAMHB with 2-3 bacterial colonies and incubating at 35° C. in a shaking water bath (250 rpm) for 18 h. A 1:20 dilution of the overnight culture was made into 50 mL of fresh CAMHB in a 125 ml erlenmyer flask and incubated at 35° C. in a shaking waterbath (250 rpm) for 8 hours. Cultures were centrifuged at 2,500 rpm, room temperature, for 20 min. The supernatant was decanted off and the cell pellet from the 50 mL of culture resuspended in 500 μl-1000 μl CAMHB. The CFU/mL in the bacterial suspension was determined by making 10-fold serial dilutions in sterile normal saline, and spreading 100 μl aliquots on blood agar plates. Culture plates were incubated at 35° C. for 18-24 hours and the number of colonies enumerated manually. One hundred microliters of bacterial cell suspension (approximately 10^9 CFU) was spread onto MHA plates containing 128 μg/mL of fosfomycin, 8 μg/mL of tobramycin, or 128 μg/mL of fosfomycin plus 8 μg/mL of tobramycin. The culture plates were incubated at 35° C. for 48-72 hours and the number of colonies on each plate was enumerated manually. The frequency of resistance was calculated by dividing the number of bacteria growing at the defined antibiotic concentration by the number of bacteria in the original inoculum. Representative mutants were evaluated for changes in MIC to fosfomycin alone, tobramycin alone, and fosfomycin plus tobramycin combinations as described in Example 5, Method A.

[2] = in vivo; cited from earlier work
P. aeruginosa COR-014 = assay: Multistep resistance analysis (continuous serial passage); assay type: cell-based; conditions: for MIC: Pseudomonas aeruginosa
Description: A single colony of P. aeruginosa COR-014 was inoculated into 5 mL of MHCAB and briefly vortexed. Two-fold serial dilutions of fosfomycin alone covering the range of 1 μg/mL-512 μg/mL, tobramycin alone covering 0.0625 μg/mL-512 μg/mL, and a 9:1 fosfomycin:tobramycin combination covering 0.0625 μg/mL-512 μg/mL were made in CAMHB. Ten microliters of bacterial suspension was pipetted into 3 mL of each antibiotic dilution and incubated statically at 35° C. for 18-24 hours. Tubes with the highest concentration of antibiotic having visible bacterial growth were selected from each antibiotic dilution series and 100 μl of the culture was pipeted into a fresh antibiotic dilution series. Tubes were incubated statically at 35° C. for 18-24 hours. This process was repeated for a total of 28 times. MICs of fosfomycin alone, tobramycin alone, and fosfomycin plus tobramycin were determined for the parent strain and resistant isolates collected after each passage as described in Example 5, Method C.

P. aeruginosa ATCC 27853 = assay: MIC for P. aeruginosa ATCC 27853; assay type: cell-based; conditions: Pseudomonas aeruginosa, ATCC27853
Description: E. coli ATCC 25922 and S. aureus ATCC 29213 were used as quality control stains. Bacterial strains were streaked onto blood agar plates, and incubated at 35° C. for 18 hours. Two to three bacterial colonies from the overnight cultures were inoculated into 3 mL of sterile normal saline, vortexed briefly, and adjusted to a 0.5 McFarland standard (NCCLS, 2003). The bacterial suspension was diluted 1:100 in cation-adjusted Mueller-Hinton broth (hereafter referred to as CAMHB). […] The MIC was defined as the lowest concentration of antibiotic (s) that prevented visible growth after incubation at 35° C. for 18-24 hours. […] Two to three bacterial colonies were inoculated into 10 mL CAMHB and incubated at 35° C. in a shaking water bath (250 rpm) for 18-24 hours. […] The resulting culture was adjusted to a 0.5 McFarland standard (NCCLS, 2003). […] Ten milliliter aliquots were then pipeted into 50 mL conical tubes. […] The killing activity of fosfomycin plus amikacin, arbekacin, dibikacin, gentamicin, kanamycin, […], neomycin, streptomycin, or tobramycin were also compared to the killing activity of their individual components alone. […] A no drug control was run in each experiment. Cultures were incubated with antibiotic at 35° C. in a shaking (250 rpm) water bath for 24 hours. […] Culture plates were incubated at 35° C. for 18-24 hours and the number of colonies enumerated manually. […]

[3] = tested on: susceptible P. aeruginosa; conditions: typical values, literature; cited from earlier work
[4] = in vivo; cited from earlier work; remark: listed apart in the source
[5] = mutants of P. aeruginosa ATCC 27853
[6] = mutants of P. aeruginosa COR-002
[7] = mutants of P. aeruginosa COR-003
[8] = mutants of P. aeruginosa COR-013
[9] = mutants of P. aeruginosa COR-014
[10] = 28 days of continuous exposure, clinical P. aeruginosa strain
[11] = COR014, 168 h, read-out: MIC 7d
[12] = COR014, 336 h, read-out: MIC 14d
[13] = COR014, 504 h, read-out: MIC 21d
[14] = COR014, 672 h, read-out: MIC 28d
[15] = COR014, read-out: MIC of the parent strain

Row | SMILES | Frequency of Resistance (P. aeruginosa; P. aeruginosa ATCC 27853) | Frequency of Resistance (P. aeruginosa; P. aeruginosa COR-002) | Frequency of Resistance (P. aeruginosa; P. aeruginosa COR-003) | Frequency of Resistance (P. aeruginosa; P. aeruginosa COR-013) | Frequency of Resistance (P. aeruginosa; P. aeruginosa COR-014) | Fold Increase in MIC after a single exposure to antibiotic (P. aeruginosa; [5]) | Fold Increase in MIC after a single exposure to antibiotic (P. aeruginosa; [6]) | Fold Increase in MIC after a single exposure to antibiotic (P. aeruginosa; [7]) | Fold Increase in MIC after a single exposure to antibiotic (P. aeruginosa; [8]) | Fold Increase in MIC after a single exposure to antibiotic (P. aeruginosa; [9]) | MIC (P. aeruginosa COR-014; COR014, 0 h, read-out: MIC 0d) [µg/mL] | MIC (P. aeruginosa COR-014; [11]) [µg/mL] | MIC (P. aeruginosa COR-014; [12]) [µg/mL] | MIC (P. aeruginosa COR-014; [13]) [µg/mL] | MIC (P. aeruginosa COR-014; [14]) [µg/mL] | MIC (P. aeruginosa COR-014; [15]) [µg/mL] | other results
1 | C[C@@H]1O[C@@H]1P(=O)(O)O [Fosfomycin] | 4.1 × 10^−5 | 1.4 × 10^−3 | 5.5 × 10^−4 | 6.4 × 10^−3 | 1.5 × 10^−5 | 128 | >256 | >256 | >64 | >512 | 16 | > 512 | > 512 | > 512 | > 512 | 8 | fosfomycin concentrations at which the species are generally inhibited [1]: ≤ 64 µg/mL; concentrations in normal lung [2]: 1000 to 13000 ng/mL; peak serum concentrations [2]: 25 to 95 µg/mL; time of peak serum concentrations [2]: 1 to 2 h; development of resistance on continuous exposure (P. aeruginosa COR-014; [10]): rapid and dramatic development of resistance; MIC (P. aeruginosa ATCC 27853): 4 µg/mL (≈ 29 µM)
2 | NC[C@H]1O[C@H](O[C@H]2[C@H](O)[C@@H](O[C@H]3O[C@H](CO)[C@@H](O)[C@H](N)[C@H]3O)[C@H](N)C[C@@H]2N)[C@H](N)C[C@@H]1O [Tobramycin] | 3.4 × 10^−6 | 6.7 × 10^−6 | 3.2 × 10^−6 | 2.6 × 10^−6 | 5.0 × 10^−6 | 1 | 1 | 2 | 8 | 16 | 0.5 | 0.5 | 0.5 | 32 | 64 | 0.5 | MICs of susceptible P. aeruginosa [3]: less than 2 μg/mL; increase in MIC of mutants after a single exposure (P. aeruginosa; range over the P. aeruginosa mutants): 2-16 fold; prevalence of nephrotoxicity [4]: 31-42%; increase in MIC on continuous exposure (P. aeruginosa COR-014; [10]): 128 fold
